# According to ChEMBL document CHEMBL1208738, “Optimization of privileged structures for selective and potent melanocortin subtype-4 receptor ligands” (Bioorg Med Chem Lett, 2010):
# Assays:
# Melanocortin receptor 4 [1] = molecular target: T1, Melanocortin receptor 4 (Homo sapiens, UniProt P32245); assay: Agonist activity at human MC4 receptor expressed in CHO cells assessed as increase of alpha-MSH-induced cAMP accumulation; format: functional, cell-based
# Melanocortin receptor 4 [2] = molecular target: T1, Melanocortin receptor 4; assay: Displacement of [125I]NDP-alpha-MSH from human MC4 receptor expressed in CHO cells; format: cell-based
# Melanocortin receptor 4 [3] = molecular target: T1, Melanocortin receptor 4; assay: Agonist activity at human MC4 receptor expressed in CHO cells assessed as increase of alpha-MSH-induced cAMP accumulation at 10 uM relative to alpha-MSH; format: functional, cell-based
# Melanocortin receptor 5 [4] = molecular target: T2, Melanocortin receptor 5 (Homo sapiens, UniProt P33032); assay: Displacement of [125I]NDP-alpha-MSH from human MC5 receptor expressed in CHO cells; format: cell-based
# [5] = molecular target: T3, Melanocyte-stimulating hormone receptor (Homo sapiens, UniProt Q01726); assay: Displacement of [125I]NDP-alpha-MSH from human MC1 receptor expressed in CHO cells; format: cell-based
# Target sequence in this assay (Q01726 whole entry): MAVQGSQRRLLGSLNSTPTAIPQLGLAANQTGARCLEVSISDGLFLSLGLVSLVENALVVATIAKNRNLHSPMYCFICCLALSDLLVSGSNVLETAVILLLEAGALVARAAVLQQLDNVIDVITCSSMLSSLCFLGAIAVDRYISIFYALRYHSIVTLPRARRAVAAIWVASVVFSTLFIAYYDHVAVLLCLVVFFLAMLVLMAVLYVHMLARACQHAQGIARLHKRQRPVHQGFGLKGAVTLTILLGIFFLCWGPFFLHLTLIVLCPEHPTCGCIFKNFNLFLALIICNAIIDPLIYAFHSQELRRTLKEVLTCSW
# [6] = molecular target: T3, Melanocyte-stimulating hormone receptor; assay: Agonist activity at human MC1 receptor expressed in CHO cells assessed as increase of alpha-MSH-induced cAMP accumulation; format: functional, cell-based
# Target sequence in this assay (Q01726 whole entry): as above
# Melanocortin receptor 3 [7] = molecular target: T4, Melanocortin receptor 3 (Homo sapiens, UniProt P41968); assay: Agonist activity at human MC3 receptor expressed in CHO cells assessed as increase of alpha-MSH-induced cAMP accumulation; format: functional, cell-based
# Melanocortin receptor 5 [8] = molecular target: T2, Melanocortin receptor 5; assay: Agonist activity at human MC5 receptor expressed in CHO cells assessed as increase of alpha-MSH-induced cAMP accumulation; format: functional, cell-based
# Melanocortin receptor 3 [9] = molecular target: T4, Melanocortin receptor 3; assay: Displacement of [125I]NDP-alpha-MSH from human MC3 receptor expressed in CHO cells; format: cell-based
# Melanocortin receptor 3 [10] = molecular target: T4, Melanocortin receptor 3; assay: Agonist activity at human MC3 receptor expressed in CHO cells assessed as increase of alpha-MSH-induced cAMP accumulation at 10 uM relative to alpha-MSH; format: functional, cell-based
# [11] = molecular target: T3, Melanocyte-stimulating hormone receptor; assay: Agonist activity at human MC1 receptor expressed in CHO cells assessed as increase of alpha-MSH-induced cAMP accumulation at 10 uM relative to alpha-MSH; format: functional, cell-based
# Target sequence in this assay (Q01726 whole entry, looked up): as the sequence (Q01726 whole entry) above
# Melanocortin receptor 5 [12] = molecular target: T2, Melanocortin receptor 5; assay: Agonist activity at human MC5 receptor expressed in CHO cells assessed as increase of alpha-MSH-induced cAMP accumulation at 10 uM relative to alpha-MSH; format: functional, cell-based
# Homo sapiens [13] = species on record: Homo sapiens; assay: Selectivity ratio of IC50 for human MC1 receptor to IC50 for human MC4 receptor
# Homo sapiens [14] = species on record: Homo sapiens; assay: Selectivity ratio of EC50 for human MC5 receptor to EC50 for human MC4 receptor
# Homo sapiens [15] = species on record: Homo sapiens; assay: Selectivity ratio of EC50 for human MC1 receptor to EC50 for human MC4 receptor
# Homo sapiens [16] = species on record: Homo sapiens; assay: Selectivity ratio of IC50 for human MC5 receptor to IC50 for human MC4 receptor
# T4 sequence (P41968 whole entry): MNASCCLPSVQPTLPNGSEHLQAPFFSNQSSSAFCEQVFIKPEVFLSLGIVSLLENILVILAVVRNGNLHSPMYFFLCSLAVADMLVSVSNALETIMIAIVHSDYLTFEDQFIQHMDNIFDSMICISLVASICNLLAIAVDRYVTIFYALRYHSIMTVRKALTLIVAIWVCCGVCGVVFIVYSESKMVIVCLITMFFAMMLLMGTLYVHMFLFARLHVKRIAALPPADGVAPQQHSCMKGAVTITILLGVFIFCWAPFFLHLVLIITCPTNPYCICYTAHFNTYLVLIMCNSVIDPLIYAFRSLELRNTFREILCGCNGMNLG
# T1 sequence (P32245 whole entry): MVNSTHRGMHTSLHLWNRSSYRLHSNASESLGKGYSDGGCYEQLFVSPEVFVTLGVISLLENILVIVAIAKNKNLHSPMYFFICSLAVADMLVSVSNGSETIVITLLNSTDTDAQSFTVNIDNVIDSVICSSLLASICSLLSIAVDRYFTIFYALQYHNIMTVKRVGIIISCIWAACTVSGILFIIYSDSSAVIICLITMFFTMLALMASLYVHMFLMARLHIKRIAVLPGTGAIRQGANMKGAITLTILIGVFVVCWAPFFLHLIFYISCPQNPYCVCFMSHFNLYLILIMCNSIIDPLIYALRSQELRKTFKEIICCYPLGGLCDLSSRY
# T2 sequence (P33032 whole entry): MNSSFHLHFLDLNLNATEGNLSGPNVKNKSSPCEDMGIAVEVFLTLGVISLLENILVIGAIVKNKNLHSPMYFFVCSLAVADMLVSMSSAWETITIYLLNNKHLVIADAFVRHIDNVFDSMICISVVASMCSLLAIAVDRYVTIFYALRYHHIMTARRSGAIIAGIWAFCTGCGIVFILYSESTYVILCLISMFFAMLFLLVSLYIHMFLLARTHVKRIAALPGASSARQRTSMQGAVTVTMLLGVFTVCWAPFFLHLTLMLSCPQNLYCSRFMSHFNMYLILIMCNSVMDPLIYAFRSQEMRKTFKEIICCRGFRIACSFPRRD
SMILES,EC50 (Melanocortin receptor 4 [1]),IC50 (Melanocortin receptor 4 [2]),Activity (Melanocortin receptor 4 [3]),other results
CC(C)NCC(C1CCCCC1)N1CCN(C(=O)[C@@H]2CN(C(C)(C)C)C[C@H]2c2ccc(F)cc2F)CC1 (stereo partly drawn),240 nM,310 nM,95%,–
CC(C)CN(CC(C)C)CC(C1CCCCC1)N1CCN(C(=O)[C@@H]2CN(C(C)(C)C)C[C@H]2c2ccc(F)cc2F)CC1 (stereo partly drawn),6700 nM,1900 nM,10%,–
CCCN(CCC)CC(C1CCCCC1)N1CCN(C(=O)[C@@H]2CN(C(C)(C)C)C[C@H]2c2ccc(F)cc2F)CC1 (stereo partly drawn),710 nM,200 nM,97%,–
"CC(=O)N(CC(C1CCCCC1)N1CCN(C(=O)[C@@H]2CN(C(C)(C)C)C[C@H]2c2ccc(F)cc2F)CC1)C(C)C (single isomer, unassigned; diastereomer 1) [listing 1 of 2 here]",50 nM,29 nM,–,–
"CC(C)N(CC(C1CCCCC1)N1CCN(C(=O)[C@@H]2CN(C(C)(C)C)C[C@H]2c2ccc(F)cc2F)CC1)S(C)(=O)=O (single isomer, unassigned; diastereomer 1) [listing 1 of 2 here]",25 nM,15 nM,–,–
"CC(C)N(CC(C1CCCCC1)N1CCN(C(=O)[C@@H]2CN(C(C)(C)C)C[C@H]2c2ccc(F)cc2F)CC1)C(=O)c1cccnn1 (single isomer, unassigned; diastereomer 1) [listing 1 of 2 here]",5.4 nM,18 nM,–,IC50 (Melanocortin receptor 5 [4]): 130 nM; IC50 [5]: 1900 nM; EC50 [6]: 1200 nM; EC50 (Melanocortin receptor 3 [7]): 90 nM; EC50 (Melanocortin receptor 5 [8]): 490 nM; IC50 (Melanocortin receptor 3 [9]): 770 nM
"CC(C)N(CC(C1CCCCC1)N1CCN(C(=O)[C@@H]2CN(C(C)(C)C)C[C@H]2c2ccc(F)cc2F)CC1)C(=O)c1cnn(C(C)C)c1 (single isomer, unassigned; diastereomer 1) [listing 1 of 2 here]",6.4 nM,18 nM,–,IC50 (Melanocortin receptor 5 [4]): 620 nM; IC50 [5]: 730 nM; EC50 [6]: 520 nM; EC50 (Melanocortin receptor 3 [7]): 79 nM; EC50 (Melanocortin receptor 5 [8]): 1000 nM; IC50 (Melanocortin receptor 3 [9]): 870 nM
"CC(=O)N(CC(CC(C)C)N1CCN(C(=O)[C@@H]2CN(C(C)(C)C)C[C@H]2c2ccc(F)cc2F)CC1)C(C)C (single isomer, unassigned; diastereomer 1) [listing 1 of 2 here]",29 nM,49 nM,–,–
"CC(C)CC(CN(C(C)C)S(C)(=O)=O)N1CCN(C(=O)[C@@H]2CN(C(C)(C)C)C[C@H]2c2ccc(F)cc2F)CC1 (single isomer, unassigned; diastereomer 1) [listing 1 of 2 here]",47 nM,88 nM,–,–
"CC(=O)N(CC(N1CCN(C(=O)[C@@H]2CN(C(C)(C)C)C[C@H]2c2ccc(F)cc2F)CC1)C(C)(C)C)C(C)C (single isomer, unassigned; diastereomer 1) [listing 1 of 2 here]",–,–,–,EC50 (Melanocortin receptor 4 [1]; cho): 180 nM; IC50 (Melanocortin receptor 4 [2]; cho): 150 nM
"CC(=O)N(CC(C1CCCCC1)N1CCN(C(=O)[C@@H]2CN(C(C)(C)C)C[C@H]2c2ccc(F)cc2F)CC1)C(C)C (single isomer, unassigned; diastereomer 1) [listing 2 of 2 here]",–,–,134%,–
"CC(=O)N(CC(CC(C)C)N1CCN(C(=O)[C@@H]2CN(C(C)(C)C)C[C@H]2c2ccc(F)cc2F)CC1)C(C)C (single isomer, unassigned; diastereomer 1) [listing 2 of 2 here]",–,–,101%,–
"CC(=O)N(CC(N1CCN(C(=O)[C@@H]2CN(C(C)(C)C)C[C@H]2c2ccc(F)cc2F)CC1)C(C)(C)C)C(C)C (single isomer, unassigned; diastereomer 1) [listing 2 of 2 here]",–,–,89%,–
"CC(C)CC(CN(C(C)C)S(C)(=O)=O)N1CCN(C(=O)[C@@H]2CN(C(C)(C)C)C[C@H]2c2ccc(F)cc2F)CC1 (single isomer, unassigned; diastereomer 1) [listing 2 of 2 here]",–,–,117%,–
"CC(C)N(CC(C1CCCCC1)N1CCN(C(=O)[C@@H]2CN(C(C)(C)C)C[C@H]2c2ccc(F)cc2F)CC1)C(=O)c1cccnn1 (single isomer, unassigned; diastereomer 1) [listing 2 of 2 here]",–,–,102%,Activity (Melanocortin receptor 3 [10]): 108%; Activity [11]: 58%; Activity (Melanocortin receptor 5 [12]): 68%
"CC(C)N(CC(C1CCCCC1)N1CCN(C(=O)[C@@H]2CN(C(C)(C)C)C[C@H]2c2ccc(F)cc2F)CC1)C(=O)c1cnn(C(C)C)c1 (single isomer, unassigned; diastereomer 1) [listing 2 of 2 here]",–,–,106%,Ratio IC50 (Homo sapiens [13]): 20; Activity (Melanocortin receptor 3 [10]): 102%; Ratio EC50 (Homo sapiens [14]): 20; Activity [11]: 60%; Ratio EC50 (Homo sapiens [15]): 20; Activity (Melanocortin receptor 5 [12]): 62%; Ratio IC50 (Homo sapiens [16]): 20
"CC(C)N(CC(C1CCCCC1)N1CCN(C(=O)[C@@H]2CN(C(C)(C)C)C[C@H]2c2ccc(F)cc2F)CC1)C(=O)c1ncccn1 (single isomer, unassigned; diastereomer 1)",–,–,98%,–

SMILES,EC50 (Melanocortin receptor 4 [1]),IC50 (Melanocortin receptor 4 [2]),Activity (Melanocortin receptor 4 [3]),other results
"CC(C)N(CC(C1CCCCC1)N1CCN(C(=O)[C@@H]2CN(C(C)(C)C)C[C@H]2c2ccc(F)cc2F)CC1)S(C)(=O)=O (single isomer, unassigned; diastereomer 1) [listing 2 of 2 here]",–,–,114%,–
"CC(C)N(CC(C1CCCCC1)N1CCN(C(=O)[C@@H]2CN(C(C)(C)C)C[C@H]2c2ccc(F)cc2F)CC1)C(=O)c1cccnn1 (single isomer, unassigned; diastereomer 2) [listing 1 of 2 here]",9.1 nM,64 nM,–,–
"CC(C)N(CC(C1CCCCC1)N1CCN(C(=O)[C@@H]2CN(C(C)(C)C)C[C@H]2c2ccc(F)cc2F)CC1)C(=O)c1cnn(C(C)C)c1 (single isomer, unassigned; diastereomer 2) [listing 1 of 2 here]",19 nM,62 nM,–,–
"CC(=O)N(CC(CC(C)C)N1CCN(C(=O)[C@@H]2CN(C(C)(C)C)C[C@H]2c2ccc(F)cc2F)CC1)C(C)C (single isomer, unassigned; diastereomer 2) [listing 1 of 2 here]",9.7 nM,23 nM,–,IC50 (Melanocortin receptor 5 [4]): 1100 nM; IC50 [5]: 3600 nM; EC50 [6]: 560 nM; EC50 (Melanocortin receptor 3 [7]): 880 nM; EC50 (Melanocortin receptor 5 [8]): > 5000 nM; IC50 (Melanocortin receptor 3 [9]): 4700 nM
"CC(C)CC(CN(C(C)C)S(C)(=O)=O)N1CCN(C(=O)[C@@H]2CN(C(C)(C)C)C[C@H]2c2ccc(F)cc2F)CC1 (single isomer, unassigned; diastereomer 2) [listing 1 of 2 here]",19 nM,27 nM,–,IC50 (Melanocortin receptor 5 [4]): 2800 nM; IC50 [5]: 5000 nM; EC50 [6]: > 5000 nM; EC50 (Melanocortin receptor 3 [7]): 2500 nM; EC50 (Melanocortin receptor 5 [8]): > 5000 nM; IC50 (Melanocortin receptor 3 [9]): 4900 nM
"CC(=O)N(CC(N1CCN(C(=O)[C@@H]2CN(C(C)(C)C)C[C@H]2c2ccc(F)cc2F)CC1)C(C)(C)C)C(C)C (single isomer, unassigned; diastereomer 2) [listing 1 of 2 here]",180 nM,150 nM,–,–
"CC(=O)N(CC(CC(C)C)N1CCN(C(=O)[C@@H]2CN(C(C)(C)C)C[C@H]2c2ccc(F)cc2F)CC1)C(C)C (single isomer, unassigned; diastereomer 2) [listing 2 of 2 here]",–,–,113%,Ratio IC50 (Homo sapiens [13]): 20; Activity (Melanocortin receptor 3 [10]): 109%; Ratio EC50 (Homo sapiens [14]): 20; Activity [11]: 77%; Ratio EC50 (Homo sapiens [15]): 20; Activity (Melanocortin receptor 5 [12]): 56%; Ratio IC50 (Homo sapiens [16]): 20
"CC(=O)N(CC(N1CCN(C(=O)[C@@H]2CN(C(C)(C)C)C[C@H]2c2ccc(F)cc2F)CC1)C(C)(C)C)C(C)C (single isomer, unassigned; diastereomer 2) [listing 2 of 2 here]",–,–,94%,–
"CC(C)CC(CN(C(C)C)S(C)(=O)=O)N1CCN(C(=O)[C@@H]2CN(C(C)(C)C)C[C@H]2c2ccc(F)cc2F)CC1 (single isomer, unassigned; diastereomer 2) [listing 2 of 2 here]",–,–,100%,Ratio IC50 (Homo sapiens [13]): 20; Activity (Melanocortin receptor 3 [10]): 87%; Ratio EC50 (Homo sapiens [14]): 20; Activity [11]: 62%; Ratio EC50 (Homo sapiens [15]): 20; Activity (Melanocortin receptor 5 [12]): 76%; Ratio IC50 (Homo sapiens [16]): 20
"CC(C)N(CC(C1CCCCC1)N1CCN(C(=O)[C@@H]2CN(C(C)(C)C)C[C@H]2c2ccc(F)cc2F)CC1)C(=O)c1cccnn1 (single isomer, unassigned; diastereomer 2) [listing 2 of 2 here]",–,–,99%,–
"CC(C)N(CC(C1CCCCC1)N1CCN(C(=O)[C@@H]2CN(C(C)(C)C)C[C@H]2c2ccc(F)cc2F)CC1)C(=O)c1cnn(C(C)C)c1 (single isomer, unassigned; diastereomer 2) [listing 2 of 2 here]",–,–,81%,–
CC(C)N(CC(C1CCCCC1)N1CCN(C(=O)[C@@H]2CN(C(C)(C)C)C[C@H]2c2ccc(F)cc2F)CC1)C(=O)c1ncccn1 (stereo in doubt; 22B) [listing 1 of 2 here],15 nM,130 nM,–,–
CC(C)N(CC(C1CCCCC1)N1CCN(C(=O)[C@@H]2CN(C(C)(C)C)C[C@H]2c2ccc(F)cc2F)CC1)C(=O)c1ncccn1 (stereo in doubt; 22B) [listing 2 of 2 here],–,–,88%,–
CC(C)N(CC(N1CCN(C(=O)[C@@H]2CN(C(C)(C)C)C[C@H]2c2ccc(F)cc2F)CC1)C(C)(C)C)S(C)(=O)=O (stereo in doubt; 27A) [listing 1 of 2 here],19 nM,53 nM,–,–
CC(C)N(CC(N1CCN(C(=O)[C@@H]2CN(C(C)(C)C)C[C@H]2c2ccc(F)cc2F)CC1)C(C)(C)C)S(C)(=O)=O (stereo in doubt; 27A) [listing 2 of 2 here],–,–,88%,–
CC(C)N(CC(N1CCN(C(=O)[C@@H]2CN(C(C)(C)C)C[C@H]2c2ccc(F)cc2F)CC1)C(C)(C)C)S(C)(=O)=O (stereo in doubt; 27B) [listing 1 of 2 here],44 nM,46 nM,–,–
CC(C)N(CC(N1CCN(C(=O)[C@@H]2CN(C(C)(C)C)C[C@H]2c2ccc(F)cc2F)CC1)C(C)(C)C)S(C)(=O)=O (stereo in doubt; 27B) [listing 2 of 2 here],–,–,102%,–
